Data published in PMC10980815, “Cell surface patching via CXCR4-targeted nanothreads for cancer metastasis inhibition” (Nature Communications, 2024).
Ends that are not written are not given here.

Legend:
[1] = target: T1, CXCR4 (Mus musculus, UniProt P70658); test: Dose-dependent chemokine receptor occupation assay; type: binding, 4T1 murine cells; settings: 4T1 cells, 0.1 nM to 1 mM, 25 °C, 1 h; unoccupied receptor stained with PE antibody
T1 construct: endogenous in cells; host or cells: 4T1 murine breast cancer cells
T1 sequence (P70658 whole entry): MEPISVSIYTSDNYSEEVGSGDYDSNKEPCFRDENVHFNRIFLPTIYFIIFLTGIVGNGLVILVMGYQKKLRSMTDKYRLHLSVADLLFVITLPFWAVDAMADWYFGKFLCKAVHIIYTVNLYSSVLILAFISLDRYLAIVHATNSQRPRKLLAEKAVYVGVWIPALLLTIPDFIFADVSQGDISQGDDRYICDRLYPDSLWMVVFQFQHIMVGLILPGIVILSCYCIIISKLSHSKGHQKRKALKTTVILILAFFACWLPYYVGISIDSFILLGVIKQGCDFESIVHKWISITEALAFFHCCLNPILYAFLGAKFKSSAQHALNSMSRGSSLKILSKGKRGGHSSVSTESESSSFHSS
Experimental: (§1) To validate the specificity of the BS (CXCR4-binding sequence) to CXCR4, a dose-dependent chemokine receptors occupation assay and a chemokine receptors competitive binding assay were conducted. […] Unoccupied chemokine receptors (CXCR4, CXCR7, CXCR2, CXCR5, and CCR4) on cell surface were stained with PE anti-human CD184/CXCR4 Antibody (1:300 dilution), anti-CXCR7-PE (1:300 dilution), anti-CXCR2-PE (1:300 dilution), anti-CXCR5-PE (1:300 dilution), and PE anti-human CD194/CCR4 Antibody (1:300 dilution) at 4 °C for 1 h, prior to flow cytometry analysis. In the chemokine receptors competitive binding assay, 4T1 cells (5 × 10^5 cells) were pre-blocked with PE anti-human CD184/CXCR4 Antibody (1:300 dilution), anti-CXCR7-PE (1:300 dilution), anti-CXCR2-PE (1:300 dilution), anti-CXCR5-PE (1:300 dilution), and PE anti-human CD194/CCR4 Antibody (1:300 dilution) at 4 °C for 1 h. Subsequently, these cells were treated with P-Cy5-BS-CM1-Cy5 (5 nM Cy5 equivalence) for 1 h. Following the treatments, cells were washed three times with PBS and subjected to flow cytometry analysis.

[2] = target: T2, CXCR7 (Mus musculus, UniProt P56485); test: Dose-dependent chemokine receptor occupation assay; type: binding, 4T1 murine cells; settings: 4T1 cells, 0.1 nM to 1 mM, 1 h
T2 construct: endogenous in cells; host or cells: 4T1 murine breast cancer cells
T2 sequence (P56485 whole entry): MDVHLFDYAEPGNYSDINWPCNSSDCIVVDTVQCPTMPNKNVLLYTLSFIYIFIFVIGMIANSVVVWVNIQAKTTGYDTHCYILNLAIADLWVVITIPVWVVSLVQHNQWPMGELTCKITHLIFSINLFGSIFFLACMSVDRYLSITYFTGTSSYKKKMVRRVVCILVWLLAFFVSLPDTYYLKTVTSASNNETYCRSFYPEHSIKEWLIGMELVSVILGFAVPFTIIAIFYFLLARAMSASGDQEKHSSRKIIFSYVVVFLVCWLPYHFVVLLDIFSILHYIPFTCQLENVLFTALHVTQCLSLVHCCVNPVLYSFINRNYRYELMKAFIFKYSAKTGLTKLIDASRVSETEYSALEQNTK
Experimental: as §1

[3] = tested on: orthotopic 4T1 breast tumors; test: Tumor-infiltrating CD8+ T lymphocytes, Tregs and MDSCs (flow cytometry); type: in vivo, female BALB/c mice; settings: for CD3+CD8+ T cells (%) in tumor / CD11b+Gr1+ MDSCs (%) in tumor / Tregs (%) in CD4+ T cells: Supplementary Fig. 16b
Experimental: 4T1 cells (1 × 10^6 cells) were injected into the third mammary fat pad of female BALB/c mice (6–8-week). When tumor volumes reached nearly […] on day 7 after tumor inoculation, mice were randomly divided into 8 groups (n = 8 per group). For four groups without laser irradiation (−), mice were intravenously injected with the following samples: (1) saline on day 7, 14, 21, and 28, (2) P-PS on day 7, 14, 21, and 28, (3) P-BS-PS on day 7, 14, 21, and 28, or (4) P-BS-CM1 on day 7, 14, 21, and 28, followed by P-PS-CM2 on day 8, 15, 22, and 29 (5 mg/kg BS equivalence, CM1:CM2 1:1 mol%, 2.5 mg/kg PS equivalence), respectively. For four groups with laser irradiation (+), mice were treated with the same regimens and irradiated at 650 nm laser (580 mW/cm^2, 5 min) on day 9, 16, 23 and 30. Tumor volumes and mice survivals were recorded every other day. For the investigation of immune response and lung metastasis, 4T1 tumor-bearing female BALB/c mice (6–8-week, tumor volume~100 mm^3) were randomly divided into 8 groups (n = 5 per group) and given three rounds of above treatments. On day 28, lungs and tumors were harvested. lungs were fixed with Bouin’s solution. The pulmonary metastatic nodules were counted and analyzed by hematoxylin-eosin staining. Single-cell suspensions of tumor tissues were stained with anti-CD45-PerCP/Cy5.5 (1:300 dilution) and anti-calreticulin recombinant rabbit monoclonal antibody (1:500 dilution) at 4 °C for 1 h, and then stained with goat anti-rabbit IgG H&L Alexa Fluor® 647 (1:1000 dilution, 4 °C, 45 min), followed by flow cytometry analysis. ATP and HMGB1 concentrations in the supernatant of cell suspension were measured using a luciferase-based ATP assay kit and a mouse HMGB1 ELISA kit, respectively. Single-cell suspensions of tumors were stained with FITC anti-mouse CD3 antibody (1:300 dilution), PerCP/Cyanine5.5 anti-mouse CD4 antibody (1:300 dilution), anti-CD8α-APC (1:300 dilution), and anti-Foxp3-PE (1:300 dilution) for flow cytometry analysis of T cell subtypes (CD8^+ T cells, CD4^+ effector T cells, and Foxp3^+ regulatory T cells), and stained with PE anti-mouse/human CD11b antibody (1:300 dilution) and FITC anti-mouse Ly-6G/Ly-6C (Gr-1) antibody (1:300 dilution) for flow cytometry analysis of MDSCs (CD11b^+Gr1^+). Cytotoxic T cells in tumor tissues were investigated with immunofluorescent staining of IFN-γ and flow cytometry analysis using anti-IFN-γ-PE (1:300 dilution). For CD8-depletion assay, 4T1 tumor-bearing female BALB/c mice (6–8-week, tumor volume~100 mm^3) were randomly divided into 3 groups (n = 8 per group). Mice were intravenously given four doses of P-BS-CM1 on day 7, 14, 21 and 28, combined with P-PS-CM2 on day 8, 15, 22 and 29 (5 mg/kg BS equivalence, CM1:CM2 1:1 mol%, 2.5 mg/kg PS equivalence) in the presence or absence of InvivoMab anti-mouse CD8α (100 μg/mice). Mice were irradiated at 650 nm laser (580 mW/cm^2, 5 min) on day 9, 16, 23 and 30. Tumor volumes and mice survivals were recorded every other day.

[4] = tested on: orthotopic 4T1 breast tumors; test: Spontaneous lung metastasis model: tumor volume and pulmonary metastatic nodules; type: in vivo, female BALB/c mice
Experimental: For the in vivo investigation of pulmonary metastasis, 4T1 cells (1 × 10^6 cells) were injected into the third mammary fat pad of female BALB/c mice (6–8 weeks). […] Tumor volumes were recorded every other day. On day 28, lungs were harvested and fixed with Bouin’s solutions. The pulmonary metastatic nodules were counted and analyzed by hematoxylin-eosin staining.

[5] = target: T3, Cy5-labeled P-BS-CM1 (P-BS-CM1-Cy5) (cysteines embedded within BS joined to maleimides of the HPMA copolymer backbone (thiol-ene click chemistry) | N-terminal cysteine joined to a maleimide of the HPMA copolymer backbone (thiol-ene …)); test: FRET or BRET; settings: both partners purified
T3 construct: copies: 6 + 4
T3 chain 1: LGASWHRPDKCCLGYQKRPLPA
T3 chain 2: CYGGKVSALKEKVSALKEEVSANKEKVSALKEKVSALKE

[6] = target: T4, Nanothread-1 (P-BS-CM1) (not fully specified; cysteines embedded within BS joined to maleimides of the HPMA copolymer backbone (thiol-ene click chemistry) | N-terminal cysteine joined to a maleimide of the HPMA copolymer …); test: circular dichroism; P-BS-CM1, P-CM2 and their mixtures (CM1:CM2 3:1, 1:1, 1:3), total polymer 10 mg/mL, 10 mM PBS pH 7.4, 25 °C, 10 min; settings: both partners purified
T4 construct: source: synthetic peptides grafted on HPMA copolymer (P-Mal), dialysis and lyophilization; copies: 6 + 4
T4 chain 1: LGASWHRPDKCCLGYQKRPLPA
T4 chain 2: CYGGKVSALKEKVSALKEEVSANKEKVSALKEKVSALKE

`c1cc(CN2CCCNCCNCCCNCC2)ccc1CN1CCCNCCNCCCNCC1` [AMD3100, reference compound] was tested, and the CXCR4 occupation [1] was “occupied CXCR4”, the CXCR7 occupation [2] was “low affinity” and the “CD3+CD8+ T cells (%) in tumor” value ([3]; 2 mg/kg, replicate 1 of 5) was 0.1606%. For the same molecule, the “CD11b+Gr1+ MDSCs (%) in tumor” value ([3]; 2 mg/kg, replicate 1 of 5) was 22.12%, the “Tregs (%) in CD4+ T cells” value ([3]; 2 mg/kg, replicate 1 of 5) was 12.05% and the “CD3+CD8+ T cells (%) in tumor” value ([3]; 2 mg/kg, replicate 2 of 5) was 0.2296%. For the same molecule, the “CD11b+Gr1+ MDSCs (%) in tumor” value ([3]; 2 mg/kg, replicate 2 of 5) was 21.04%, the “Tregs (%) in CD4+ T cells” value ([3]; 2 mg/kg, replicate 2 of 5) was 13.02% and the “CD3+CD8+ T cells (%) in tumor” value ([3]; 2 mg/kg, replicate 3 of 5) was 0.134%. For the same molecule, the “CD11b+Gr1+ MDSCs (%) in tumor” value ([3]; 2 mg/kg, replicate 3 of 5) was 19.16%, the “Tregs (%) in CD4+ T cells” value ([3]; 2 mg/kg, replicate 3 of 5) was 16.28% and the “CD3+CD8+ T cells (%) in tumor” value ([3]; 2 mg/kg, replicate 4 of 5) was 0.1643%. For the same molecule, the “CD11b+Gr1+ MDSCs (%) in tumor” value ([3]; 2 mg/kg, replicate 4 of 5) was 20.68%, the “Tregs (%) in CD4+ T cells” value ([3]; 2 mg/kg, replicate 4 of 5) was 11.04% and the “CD3+CD8+ T cells (%) in tumor” value ([3]; 2 mg/kg, replicate 5 of 5) was 0.1515%. For the same molecule, the “CD11b+Gr1+ MDSCs (%) in tumor” value ([3]; 2 mg/kg, replicate 5 of 5) was 18.7%, the “Tregs (%) in CD4+ T cells” value ([3]; 2 mg/kg, replicate 5 of 5) was 18.84% and the “CD3+CD8+ T cells (%) in tumor” value ([3]; 5 mg/kg, replicate 1 of 5) was 0.2311%. For the same molecule, the “CD11b+Gr1+ MDSCs (%) in tumor” value ([3]; 5 mg/kg, replicate 1 of 5) was 16.63%, the “Tregs (%) in CD4+ T cells” value ([3]; 5 mg/kg, replicate 1 of 5) was 7.21% and the “CD3+CD8+ T cells (%) in tumor” value ([3]; 5 mg/kg, replicate 2 of 5) was 0.1528%. The “CD11b+Gr1+ MDSCs (%) in tumor” value ([3]; 5 mg/kg, replicate 2 of 5) was 14.04%, the “Tregs (%) in CD4+ T cells” value ([3]; 5 mg/kg, replicate 2 of 5) was 6.69% and the “CD3+CD8+ T cells (%) in tumor” value ([3]; 5 mg/kg, replicate 3 of 5) was 0.1403%. For the same molecule, the “CD11b+Gr1+ MDSCs (%) in tumor” value ([3]; 5 mg/kg, replicate 3 of 5) was 15.32%, the “Tregs (%) in CD4+ T cells” value ([3]; 5 mg/kg, replicate 3 of 5) was 12.48% and the “CD3+CD8+ T cells (%) in tumor” value ([3]; 5 mg/kg, replicate 4 of 5) was 0.2195%. For the same molecule, the “CD11b+Gr1+ MDSCs (%) in tumor” value ([3]; 5 mg/kg, replicate 4 of 5) was 14.1%, the “Tregs (%) in CD4+ T cells” value ([3]; 5 mg/kg, replicate 4 of 5) was 10.38% and the “CD3+CD8+ T cells (%) in tumor” value ([3]; 5 mg/kg, replicate 5 of 5) was 0.1508%. For the same molecule, the “CD11b+Gr1+ MDSCs (%) in tumor” value ([3]; 5 mg/kg, replicate 5 of 5) was 16%, the “Tregs (%) in CD4+ T cells” value ([3]; 5 mg/kg, replicate 5 of 5) was 8.46% and the “tumor-infiltrating CD8+ T cells” value ([3]; day 28, AMD3100 i.p. daily 2 or 5 mg/kg, nanothreads weekly i.v.) was “remained low”. For the same molecule, the “Number of metastatic nodules” value ([4]; 2mg/kg, replicate 1) was 31, the “Number of metastatic nodules” value ([4]; 2mg/kg, replicate 2) was 32 and the “Number of metastatic nodules” value ([4]; 2mg/kg, replicate 3) was 20. For the same molecule, the “Number of metastatic nodules” value ([4]; 2mg/kg, replicate 4) was 20, the “Number of metastatic nodules” value ([4]; 2mg/kg, replicate 5) was 18 and the “Number of metastatic nodules” value ([4]; 5mg/kg, replicate 1) was 12. For the same molecule, the “Number of metastatic nodules” value ([4]; 5mg/kg, replicate 2) was 14, the “Number of metastatic nodules” value ([4]; 5mg/kg, replicate 3) was 15 and the “Number of metastatic nodules” value ([4]; 5mg/kg, replicate 4) was 9. For the same molecule, the “Number of metastatic nodules” value ([4]; 5mg/kg, replicate 5) was 12 and the primary tumor growth ([4]; nanothreads weekly i.v. x3, AMD3100 i.p. daily 2 or 5 mg/kg day 7-27) was “dose-dependent anti-tumor activity”.

C(HPMA copolymer)YGGEVSALEKEVSALEKKNSALEKEVSALEKEVSALEK (other, also: Cy3 label on conjugate, position not given here, copies: 12) [Cy3-labeled P-CM2 (P-CM2-Cy3)]: binds [5].

B1: HPMA copolymer-CM2 conjugate (P-CM2) (other)
peptide: CYGGEVSALEKEVSALEKKNSALEKEVSALEKEVSALEK
modifications: not fully specified (residue 1)
notes: source: synthetic peptide grafted on HPMA copolymer (P-Mal), dialysis and lyophilization; copies: 12
B1: binds [6].
